In the NIST ThermoML archive (doi:10.1007/s10765-009-0602-6):

Assay: molar heat capacity at constant volume; xn = mol fraction of the nth substance listed
Conditions: x1 = 0.2607

N [ammonia] + O
Conditions	molar heat capacity at constant volume [J/K/mol]
508.07 K, Fluid (supercritical or subcritical phases), Mass density=671.23 kg/m3, isochoric heat capacity	68.25
508.07 K, Liquid, Isochoric heat capacity	68.25
508.26 K, Fluid (supercritical or subcritical phases), Mass density=671.23 kg/m3, isochoric heat capacity	68.14
508.36 K, Fluid (supercritical or subcritical phases), Mass density=671.23 kg/m3, isochoric heat capacity	68.37
508.45 K, Fluid (supercritical or subcritical phases), Mass density=671.23 kg/m3, isochoric heat capacity	67.54
508.54 K, Fluid (supercritical or subcritical phases), Mass density=671.23 kg/m3, isochoric heat capacity	67.61
508.64 K, Fluid (supercritical or subcritical phases), Mass density=671.23 kg/m3, isochoric heat capacity	67.18
509.01 K, Fluid (supercritical or subcritical phases), Mass density=671.23 kg/m3, isochoric heat capacity	68.48
509.11 K, Fluid (supercritical or subcritical phases), Mass density=671.23 kg/m3, isochoric heat capacity	67.7
509.3 K, Fluid (supercritical or subcritical phases), Mass density=671.23 kg/m3, isochoric heat capacity	67.89
509.39 K, Fluid (supercritical or subcritical phases), Mass density=671.23 kg/m3, isochoric heat capacity	66.74
509.67 K, Fluid (supercritical or subcritical phases), Mass density=671.23 kg/m3, isochoric heat capacity	67.09
513.42 K, Fluid (supercritical or subcritical phases), Mass density=671.23 kg/m3, isochoric heat capacity	65.53
513.61 K, Fluid (supercritical or subcritical phases), Mass density=671.23 kg/m3, isochoric heat capacity	65.05
513.8 K, Fluid (supercritical or subcritical phases), Mass density=671.23 kg/m3, isochoric heat capacity	65.6
516.88 K, Fluid (supercritical or subcritical phases), Mass density=671.23 kg/m3, isochoric heat capacity	63.54
517.07 K, Fluid (supercritical or subcritical phases), Mass density=671.23 kg/m3, isochoric heat capacity	63.15
517.26 K, Fluid (supercritical or subcritical phases), Mass density=671.23 kg/m3, isochoric heat capacity	63.06
517.44 K, Fluid (supercritical or subcritical phases), Mass density=671.23 kg/m3, isochoric heat capacity	63.27
517.63 K, Fluid (supercritical or subcritical phases), Mass density=671.23 kg/m3, isochoric heat capacity	62.44
517.82 K, Fluid (supercritical or subcritical phases), Mass density=671.23 kg/m3, isochoric heat capacity	63.49
519.77 K, Fluid (supercritical or subcritical phases), Mass density=649.65 kg/m3, isochoric heat capacity	68.81
519.77 K, Liquid, Isochoric heat capacity	68.81
519.87 K, Fluid (supercritical or subcritical phases), Mass density=649.65 kg/m3, isochoric heat capacity	68.23
520.05 K, Fluid (supercritical or subcritical phases), Mass density=649.65 kg/m3, isochoric heat capacity	65.99
520.14 K, Fluid (supercritical or subcritical phases), Mass density=649.65 kg/m3, isochoric heat capacity	66.91
520.24 K, Fluid (supercritical or subcritical phases), Mass density=649.65 kg/m3, isochoric heat capacity	67.27
520.33 K, Fluid (supercritical or subcritical phases), Mass density=649.65 kg/m3, isochoric heat capacity	64.87
520.42 K, Fluid (supercritical or subcritical phases), Mass density=649.65 kg/m3, isochoric heat capacity	66.63
520.52 K, Fluid (supercritical or subcritical phases), Mass density=649.65 kg/m3, isochoric heat capacity	67.09
520.79 K, Fluid (supercritical or subcritical phases), Mass density=649.65 kg/m3, isochoric heat capacity	65.87
520.98 K, Fluid (supercritical or subcritical phases), Mass density=649.65 kg/m3, isochoric heat capacity	65.39
521.17 K, Fluid (supercritical or subcritical phases), Mass density=649.65 kg/m3, isochoric heat capacity	66.9
521.35 K, Fluid (supercritical or subcritical phases), Mass density=649.65 kg/m3, isochoric heat capacity	66.72
521.45 K, Fluid (supercritical or subcritical phases), Mass density=649.65 kg/m3, isochoric heat capacity	66.06
521.54 K, Fluid (supercritical or subcritical phases), Mass density=649.65 kg/m3, isochoric heat capacity	65.81
526.45 K, Fluid (supercritical or subcritical phases), Mass density=649.65 kg/m3, isochoric heat capacity	63.84
526.64 K, Fluid (supercritical or subcritical phases), Mass density=649.65 kg/m3, isochoric heat capacity	63.74
526.82 K, Fluid (supercritical or subcritical phases), Mass density=649.65 kg/m3, isochoric heat capacity	63.43
527.01 K, Fluid (supercritical or subcritical phases), Mass density=649.65 kg/m3, isochoric heat capacity	63.65
527.19 K, Fluid (supercritical or subcritical phases), Mass density=649.65 kg/m3, isochoric heat capacity	62.83
527.28 K, Fluid (supercritical or subcritical phases), Mass density=649.65 kg/m3, isochoric heat capacity	63.36
545.62 K, Fluid (supercritical or subcritical phases), Mass density=594.32 kg/m3, isochoric heat capacity	71.3
545.62 K, Liquid, Isochoric heat capacity	71.3
545.71 K, Fluid (supercritical or subcritical phases), Mass density=594.32 kg/m3, isochoric heat capacity	69.65
545.8 K, Fluid (supercritical or subcritical phases), Mass density=594.32 kg/m3, isochoric heat capacity	69.15
546.08 K, Fluid (supercritical or subcritical phases), Mass density=594.32 kg/m3, isochoric heat capacity	68.46
546.17 K, Fluid (supercritical or subcritical phases), Mass density=594.32 kg/m3, isochoric heat capacity	67.48
546.35 K, Fluid (supercritical or subcritical phases), Mass density=594.32 kg/m3, isochoric heat capacity	68.48
546.62 K, Fluid (supercritical or subcritical phases), Mass density=594.32 kg/m3, isochoric heat capacity	67.15
546.71 K, Fluid (supercritical or subcritical phases), Mass density=594.32 kg/m3, isochoric heat capacity	66.47
547.07 K, Fluid (supercritical or subcritical phases), Mass density=594.32 kg/m3, isochoric heat capacity	65.62
547.17 K, Fluid (supercritical or subcritical phases), Mass density=594.32 kg/m3, isochoric heat capacity	66.33
547.5 K, Fluid (supercritical or subcritical phases), Mass density=594.32 kg/m3, isochoric heat capacity	65.53
547.79 K, Fluid (supercritical or subcritical phases), Mass density=594.32 kg/m3, isochoric heat capacity	65.46
547.98 K, Fluid (supercritical or subcritical phases), Mass density=594.32 kg/m3, isochoric heat capacity	63.91
549.8 K, Fluid (supercritical or subcritical phases), Mass density=594.32 kg/m3, isochoric heat capacity	63.77
549.98 K, Fluid (supercritical or subcritical phases), Mass density=594.32 kg/m3, isochoric heat capacity	62.97
550.07 K, Fluid (supercritical or subcritical phases), Mass density=594.32 kg/m3, isochoric heat capacity	63.74
550.16 K, Fluid (supercritical or subcritical phases), Mass density=594.32 kg/m3, isochoric heat capacity	63.45
550.34 K, Fluid (supercritical or subcritical phases), Mass density=594.32 kg/m3, isochoric heat capacity	63.56
561.03 K, Fluid (supercritical or subcritical phases), Mass density=552.58 kg/m3, isochoric heat capacity	73.2
561.03 K, Liquid, Isochoric heat capacity	73.2
561.19 K, Fluid (supercritical or subcritical phases), Mass density=552.58 kg/m3, isochoric heat capacity	70.73
561.25 K, Fluid (supercritical or subcritical phases), Mass density=552.58 kg/m3, isochoric heat capacity	66.7
561.34 K, Fluid (supercritical or subcritical phases), Mass density=552.58 kg/m3, isochoric heat capacity	64.8
561.52 K, Fluid (supercritical or subcritical phases), Mass density=552.58 kg/m3, isochoric heat capacity	64.06
561.61 K, Fluid (supercritical or subcritical phases), Mass density=552.58 kg/m3, isochoric heat capacity	62.44
561.7 K, Fluid (supercritical or subcritical phases), Mass density=552.58 kg/m3, isochoric heat capacity	64.39
561.88 K, Fluid (supercritical or subcritical phases), Mass density=552.58 kg/m3, isochoric heat capacity	63.24
561.97 K, Fluid (supercritical or subcritical phases), Mass density=552.58 kg/m3, isochoric heat capacity	62.79
562.06 K, Fluid (supercritical or subcritical phases), Mass density=552.58 kg/m3, isochoric heat capacity	61.43
565.36 K, Liquid, Isochoric heat capacity	73.52
580.18 K, Fluid (supercritical or subcritical phases), Mass density=476.25 kg/m3, isochoric heat capacity	77.25
580.18 K, Liquid, Isochoric heat capacity	77.25
580.21 K, Fluid (supercritical or subcritical phases), Mass density=476.25 kg/m3, isochoric heat capacity	73.61
580.3 K, Fluid (supercritical or subcritical phases), Mass density=476.25 kg/m3, isochoric heat capacity	69.74
580.56 K, Fluid (supercritical or subcritical phases), Mass density=476.25 kg/m3, isochoric heat capacity	68.42
580.74 K, Fluid (supercritical or subcritical phases), Mass density=476.25 kg/m3, isochoric heat capacity	68.46
580.92 K, Fluid (supercritical or subcritical phases), Mass density=476.25 kg/m3, isochoric heat capacity	67.84
581.01 K, Fluid (supercritical or subcritical phases), Mass density=476.25 kg/m3, isochoric heat capacity	68.48
